Test [1] has as its target h-NAAA (Homo sapiens (Human), UniProt Q02083). Briefly: Fluorogenic h-NAAA assay. In kind it is biochemical. As for the experimental part:
(§1) The assay was run in Optiplate 96-wells black plates, in a total reaction volume of 200 mL. NAAA protein preparations (4 ng) were pre-incubated for 10 minutes with various concentrations of test compounds or vehicle control (5% DMSO) in 100 mM citrate/phosphate buffer (pH 4.5) containing 3.0 mM DTT, 0.1% Triton X-100, 0.05% BSA, 150 mM NaCl. N-(4-methyl-2-oxo-chromen-7-yl)-hexadecanamide was used as a substrate (5.0 μM) and the reaction carried over for 30 minutes at 37° C. Fluorescence in the samples was quantified in a Perkin Elmer Envision plate reader using an excitation wavelength of 360 nm and emission 460 nm. IC50 values were calculated by non-linear regression analysis of log [concentration]/inhibition curves using GraphPad Prism 5 (GraphPad Software Inc., CA—USA) applying a standard slope curve fitting.
as §1, with “μL.” for “mL.”, “preparation (4.0 μg) was” for “preparations (4 ng) were”, “min” for “minutes”, “The” for “Fluorescence in the”, “were then read” for “was quantified”

Test [2] deals with UVB-induced inflammation. The experiment in a line: UV-B irradiation model in rats, plantar test. In kind it is in vivo, rat. As for the experimental part:
Male Sprague Dawley rats (150-175 g, Charles River, Calco, Italy) were anaesthetized with a mixture of Tiletamine (15 mg/Kg) and Zolazepam (15 mg/Kg) administered in a single intra-peritoneal injection. Rats were then placed on their backs and shrouded in a UV opaque material with only the relevant surface of the plantar right hind paw exposed, perpendicular to the narrowband UVB light source situated above the level of the limb. The UVB source used for all experiments consisted of a bank of four TL01 fluorescent tubes (Philips, UK, λmax=312 nm) spaced 2.5 cm apart producing an even field of irradiation. The irradiance produced by the bulbs during each irradiation was determinate at the distance of the limb from the light source using a calibrate meter (I[…] with SEL240/UVB-1/TD filter, ABLE Instruments & Controls Ltd, UK). From this, the doses of UVB to which the rats were exposed were calculated. After plantar irradiation, nociceptive withdrawal responses to both thermal and mechanical stimuli were tested. Heat hypersensitivity was assessed using the rat plantar test equipment (Ugo Basile, Italy) following the method described by Hargreaves et al. (1988). […] Uninjured paw was always assessed first. […] The withdrawal threshold is calculated as the average of three consecutive tests with at list 5 minutes between each test. […]

For test [3], the target named is Acid Ceramidase (AC) (Rattus norvegicus (Rat), UniProt Q6P7S1). Briefly: Acid ceramidase inhibition, recombinant rat AC, LC-MS. As to conditions: read-out: r-AC % inhib. @ 10 μM. Type of test: biochemical. As for the experimental part:
The PCR (High Fidelity PCR Master, Roche) product was subcloned into a pEF6-[…] vector (Invitrogen) to construct a mammalian expression vector encoding […]-tagged rat AC. HEK293 cells were transfected with pEF6-rAC-[…] using Super-Fect reagent (Qiagen) and screened with G418 (0.3 mg/mL). Cells were suspended in 20 mM Tris HCl (pH 7.5) containing 0.32M sucrose, sonicated and centrifuged at 800×g for 15 minutes at 4° C. The supernatants were centrifuged again at 12,000×g for 30 minutes at 4° C. The pellets were suspended in phosphate-buffered saline (PBS) and subjected to 2 freeze-thaw cycles at -80° C. The suspensions were centrifuged at 105,000×g for 1 hour at 4° C. The supernatants containing recombinant AC were kept at -80° C. until use. Protein concentration was measured using the bicinchoninic acid (BCA) assay (Pierce). […] Reactions were stopped by addition of a mixture of chloroform/methanol (2:1, vol/vol) containing 1 nmol of heptadecanoic acid (HDA; NuChek Prep). […] HDA was eluted on an XDB Eclipse C18 column isocratically at 2.2 mL/min for 1 minute with a solvent mixture of 95% methanol and 5% water, both containing 0.25% acetic acid and 5 mM ammonium acetate. The column temperature was 50° C. Electrospray ionization (ESI) was in the negative mode, capillary voltage as 4 kV, and fragmentor voltage was 100 V. N2 was used as drying gas at a flow rate of 13 L/min and a temperature of 350° C. Nebulizer pressure was set at 60 psi. We monitored [M-H]- in the selected-ion monitoring (SIM) mode using HDA as internal standard. Calibration curves were generated using commercial lauric acid (Nu-Chek Prep; m/z=199).

A word on the IC50: it is the concentration that inhibits the measured activity by half. The low end stands for higher potency, the high end for lower potency.

SMILES strings stand for the structures.

Acid Ceramidase (AC), sequence (Q6P7S1 21-394): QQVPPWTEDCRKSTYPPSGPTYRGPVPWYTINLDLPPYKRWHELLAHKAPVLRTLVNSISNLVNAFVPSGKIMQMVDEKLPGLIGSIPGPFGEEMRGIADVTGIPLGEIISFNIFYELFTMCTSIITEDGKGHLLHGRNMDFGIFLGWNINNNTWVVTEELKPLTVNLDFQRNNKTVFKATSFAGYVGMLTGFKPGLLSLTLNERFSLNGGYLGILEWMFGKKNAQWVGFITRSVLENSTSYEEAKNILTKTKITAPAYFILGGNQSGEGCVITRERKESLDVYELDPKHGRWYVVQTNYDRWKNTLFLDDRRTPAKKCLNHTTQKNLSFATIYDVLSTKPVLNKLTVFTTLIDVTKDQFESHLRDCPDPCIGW
h-NAAA, sequence (Q02083 29-359): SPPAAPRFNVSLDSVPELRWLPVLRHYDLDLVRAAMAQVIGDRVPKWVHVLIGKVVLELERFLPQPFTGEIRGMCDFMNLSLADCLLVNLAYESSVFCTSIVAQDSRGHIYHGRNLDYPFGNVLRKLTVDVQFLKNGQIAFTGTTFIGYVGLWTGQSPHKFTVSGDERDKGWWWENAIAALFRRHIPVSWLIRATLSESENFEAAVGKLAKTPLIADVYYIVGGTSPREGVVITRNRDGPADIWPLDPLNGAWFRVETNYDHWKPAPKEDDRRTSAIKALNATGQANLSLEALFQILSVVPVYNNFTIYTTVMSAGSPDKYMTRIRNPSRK

On to `C[C@@H]1OC(=O)[C@@H]1NC(=O)OCCCCCc1ccccc1` [Example 6, 5-phenylpentyl-[(2S,3R)-2-methyl-4-oxooxetan-3-yl]-carbamate], for which the midpoint of inhibition in test [1], the IC50, lay at 0.014 µM. Further, in test [2] (10 and 30% w/w, vs vehicle), the “Thermal hyperalgesia induced by irradiation with 250 mJ/cm^2 of UVB” value is given as “significantly reduced”. In test [2] (topical suspension in vaseline oil plus 5% lauric acid), the UVB-induced inflammation entry is “dose-dependently reduced the UVB-induced inflammation”. Further, in test [3], the inhibition at 10 µM is below 10%.

The record behind these values is patent publication US9353075B2, “Disubstituted beta-lactones as inhibitors of N-acylethanolamine acid amidase (NAAA)” (The Regents of the University of California, priority 2011, dated 2016).
